In ChEMBL document CHEMBL6109077, “Design, synthesis and in vitro validation of bivalent binders of SARS-CoV-2 spike protein: Obeticholic, betulinic and glycyrrhetinic acids as building blocks” (Bioorg Med Chem, 2025):
The source made the active and inactive calls. The calls are words filed in the database; no cut-off is given here.

Assays:
293T/ACE2 [1] = test: Inhibition of spike protein D614G mutant in pseudotyped SARS-CoV-2 infected in 293T/ACE2 cells assessed as reduction in viral entry at 10 uM preincubated with virus for 1 hr followed by cell infection and measured after 48 hrs by bright-glo luciferase reporter gene assay; type: cell-based; details: Severe acute respiratory syndrome coronavirus 2, time 49.0 hrs
293T/ACE2 [2] = test: Inhibition of spike protein Omicron BA.2 mutant in pseudotyped SARS-CoV-2 infected in 293T/ACE2 cells assessed as reduction in viral entry at 10 uM preincubated with virus for 1 hr followed by cell infection and measured after 48 hrs by bright-glo luciferase reporter gene assay; type: cell-based; details: Severe acute respiratory syndrome coronavirus 2, time 49.0 hrs

C=C(C)[C@@H]1CC[C@]2(C(=O)OC)CC[C@@]3(C)[C@@H]4CC[C@@H]5[C@H](CC[C@H](OC(=O)CCCCc6cn(CCCCCCNC(=O)CC[C@@H](C)[C@H]7CC[C@H]8[C@@H]9[C@H](O)[C@H](CC)[C@@H]%10C[C@H](O)CC[C@]%10(C)[C@H]9CC[C@]78C)nn6)C5(C)C)[C@H]4CC[C@@H]3[C@@H]12
inhibition (293T/ACE2 [1]): inactive
inhibition (293T/ACE2 [2]): Active; Significant Effect Observed

CC[C@H]1[C@@H](O)[C@@H]2[C@H](CC[C@]3(C)[C@@H]([C@H](C)CCC(=O)O)CC[C@@H]23)[C@@]2(C)CC[C@@H](O)C[C@@H]12
inhibition (293T/ACE2 [1]): Not active; No Statistically Significant Decrease Observed
inhibition (293T/ACE2 [2]): Not active; No Statistically Significant Decrease Observed

CC[C@H]1[C@@H](O)[C@@H]2[C@H](CC[C@]3(C)[C@@H]([C@H](C)CCC(=O)NCCCCCCn4cc(CCCCC(=O)O[C@H]5CC[C@H]6[C@@H](CC[C@]7(C)[C@@H]6C(=O)C=C6[C@@H]8C[C@@](C)(C(=O)OC)CC[C@]8(C)CC[C@]67C)C5(C)C)nn4)CC[C@@H]23)[C@@]2(C)CC[C@@H](O)C[C@@H]12
inhibition (293T/ACE2 [1]): inactive
inhibition (293T/ACE2 [2]): inactive

C=C(C)[C@@H]1CC[C@]2(C(=O)OC)CC[C@]3(C)[C@H](CC[C@@H]4[C@@]5(C)CC[C@H](OC(=O)CCCCCCCCNC(=O)CC[C@@H](C)[C@H]6CC[C@H]7[C@@H]8[C@H](O)[C@H](CC)[C@@H]9C[C@H](O)CC[C@]9(C)[C@H]8CC[C@]67C)C(C)(C)[C@@H]5CC[C@]43C)[C@@H]12
inhibition (293T/ACE2 [1]): Active; Statistically Significant Effect Observed
inhibition (293T/ACE2 [2]): Active; Statistically Significant Effect Observed

C=C(C)[C@@H]1CC[C@]2(C(=O)OC)CC[C@]3(C)[C@H](CC[C@@H]4[C@@]5(C)CC[C@H](OC(=O)CCCNC(=O)CC[C@@H](C)[C@H]6CC[C@H]7[C@@H]8[C@H](O)[C@H](CC)[C@@H]9C[C@H](O)CC[C@]9(C)[C@H]8CC[C@]67C)C(C)(C)[C@@H]5CC[C@]43C)[C@@H]12
inhibition (293T/ACE2 [1]): Active; Statistically Significant Effect Observed
inhibition (293T/ACE2 [2]): Active; Statistically Significant Effect Observed

CC1(C)[C@@H](O)CC[C@]2(C)[C@H]3C(=O)C=C4[C@@H]5C[C@@](C)(C(=O)O)CC[C@]5(C)CC[C@@]4(C)[C@]3(C)CC[C@@H]12
inhibition (293T/ACE2 [1]): Not active; No Statistically Significant Decrease Observed
inhibition (293T/ACE2 [2]): Not active; No Statistically Significant Decrease Observed

C=C(C)[C@@H]1CC[C@]2(C(=O)O)CC[C@]3(C)[C@H](CC[C@@H]4[C@@]5(C)CC[C@H](O)C(C)(C)[C@@H]5CC[C@]43C)[C@@H]12
inhibition (293T/ACE2 [1]): Not active; No Statistically Significant Decrease Observed
inhibition (293T/ACE2 [2]): Not active; No Statistically Significant Decrease Observed
